Read-outs that look alike come from different tables or passages of the source.
Tests used:
[1] = in vitro; conditions: human
Protocol: HepG2 cell viability was assessed using the Cell Proliferation kit with trypan blue exclusion. […] After incubation, a 1.5-mg/mL Cell Proliferation kit solution diluted in complete MEM medium was added to each well, followed by 1-hour dark incubation at 25°C. After aspiration of media and inhibitors, the plates were dried in a hood for 15 minutes, and acidified isopropyl alcohol was added to dissolve formazan dye crystals. The plates were then rotated for 15–30 minutes, and absorbance was determined using a Perkin Elmer Ensight plate reader.

[2] = tested on: P. falciparum TM91c235; test: Malaria SYBR Green I-Based Fluorescence (MSF) assay, blood stages; format: cell-based; conditions: Plasmodium falciparum, read-out: IC50 (µM) (±SD) for strain: TM91c235
Protocol: (§1) MSF assays were performed in vitro with four P. falciparum strains: D6 (drug sensitive), TM91-C235 (multidrug resistant), W2 (CQ resistant), and C2B (multidrug resistant against ATQ). Parasite strains were kept continuously in long-term cultures as described ([22]). Pre-dosed 384-well plates containing […] serial dilutions of CB compounds (0.0098–20 µM) were prepared using the Tecan Freedom Evo liquid handling system (Tecan USA, Inc., Durham, NC, USA) and were stored at 4°C. A CQ control plate (2,000 ng/mL) was included in each run. Based on modifications of previous methods ([17], [55]), late-ring or early-trophozoite stages were cultured in pre-dosed plates with 0.3% parasitemia and 2% hematocrit. Cultures were incubated for 72 hours at 37°C in a controlled atmosphere of 5% CO2, 5% O2, and 90% N2. Lysis buffer, consisting of 20 mM Tris HCl, 5 mM EDTA, 1.6% Triton X, 0.016% saponin, and SYBR Green I dye at a 20X concentration (Invitrogen #S-7567), was added to the plates for a final 10X SYBR Green concentration. Plates containing cell culture media and lysis buffer were incubated in the dark at 25°C for 24 hours, and the relative fluorescence units (RFU) were measured using the Tecan Genios Plus (Tecan USA, Inc.).

[3] = tested on: P. falciparum C2B; test: as above; format: cell-based; conditions: Plasmodium falciparum, 72 h, read-out: IC50 (µM) (±SD) for strain: C2B
Protocol: as §1

[4] = tested on: P. falciparum D6; test: as above; format: cell-based; conditions: Plasmodium falciparum, read-out: IC50 (µM) (±SD) for strain: D6
Protocol: as §1

[5] = tested on: P. falciparum W2; test: as above; format: cell-based; conditions: Plasmodium falciparum, read-out: IC50 (µM) (±SD) for strain: W2
Protocol: as §1

[6] = tested on: P. berghei blood-stage parasites; test: P. berghei blood-stage isobolograms; format: cell-based, Plasmodium berghei
Protocol: Antimalarial activity and IC50 values of CB-61 and five antimalarial drugs were assessed using the previously described in vitro drug luminescence assay ([14], [68]). Blood-stage isobolograms were performed to confirm synergistic combinations between CB-61 and the five drugs, following established protocols ([69]). Thirty-two-fold IC50 concentrations were used to obtain six concentration ranges for each drug combination, and then they were serially diluted five times ([67]). IC50 scores for each drug alone were determined, and FIC50 values (FIC50 = […]) were calculated and plotted ([70], [71]). The Promega Luciferase Assay System Kit was used to measure mature schizonts’ RLUs, and Giemsa blood smears confirmed the presence of schizonts ([14]).

[7] = blood stages, 72 hours, multidrug resistant strain
[8] = D6, blood stages, 72 hours, drug-sensitive strain
[9] = W2, blood stages, 72 hours, CQ resistant strain

SMILES	IC50 at 48 h ([1]; HepG2 cells)	IC50 [2, 7]	IC50 [3]	IC50 [4, 8]	IC50 [5, 9]	Mean ΣFIC50 ([6]; combination with ATQ)	Mean ΣFIC50 ([6]; combination with CLIND)	Mean ΣFIC50 ([6]; combination with CQ (negative control))	Mean ΣFIC50 ([6]; combination with DHA)	Mean ΣFIC50 ([6]; combination with HALO)	Mean ΣFIC50 ([6]; combination with LUM)	IC50 at 48 h [1]	IC50 ([2]; 72 h)	IC50 ([4]; D6, 72 h)	IC50 ([5]; W2, 72 h)
COc1cccc(/C=N/NC(=O)c2nc(-c3ccccc3)cc(-c3ccccc3)n2)c1O [CB-41]	> 20000 nM	2.26 µM	2.73 µM	2.26 µM	2.71 µM										
O=C(N/N=C/c1cc(Br)ccc1O)/C(=C/C=C/c1ccccc1)NC(=O)c1ccccc1 [CB-50]	> 20000 nM	1.84 µM	1.89 µM	1.14 µM	1.15 µM										
O=C(NN=Cc1ccccc1O)c1cc(-c2ccccc2)nc2ccccc12 [CB-53]	> 20000 nM	13.9 µM	> 20 µM	> 20 µM	> 20 µM										
COc1cccc(/C=N/NC(=O)c2cc(-c3ccccc3)nc3ccccc23)c1O [CB-58]	> 20000 nM	10.6 µM	8.83 µM	8.44 µM	5.63 µM										
O=C(N/N=C/c1c(O)ccc2ccccc12)c1cc([N+](=O)[O-])cc([N+](=O)[O-])c1 [CB-61]			0.3 µM			1.13	0.82	1.15	1.44	0.78	1.20	> 20000 nM	0.26 µM	0.2 µM	0.22 µM

— PMC11620517, “Novel hydrazone compounds with broad-spectrum antiplasmodial activity and synergistic interactions with antimalarial drugs” (Antimicrobial Agents and Chemotherapy, 2024)
